Experimental data from patent US20220395500A1, “SMALL MOLECULE ACTIVATORS OF INTERFERON REGULATORY FACTOR 3 AND METHODS OF USE THEREOF” (Neuralexo, Inc., priority 2020, published 2022).
Where two headings read alike, the source gives them in different places.

What was measured:
J774-Dual cytotoxicity = type: cell-based, mouse; settings: mouse, J774-Dual cells, read-out: J774 cytotox CC50
Method: The OTRADI Small Molecule Library of approximately 246,000 diverse compounds (see below for description) was screened using the THP1-Dual based HTS platform described above. All transfer steps in the screen are fully automated, thus reducing variability. Primary screening included a single data point or dose for each molecule. After data normalization was applied for each assay run, “hit” selection was performed on the plates that pass the quality control (QC) criterion. Hits were defined as samples having values above the activity cutoff determined based on noise level of the assay to reduce false positive rates. […] The ratio of ISRE:NFκB activity was also calculated as a selectivity index for prioritizing hit selection. Primary hits underwent secondary screening to determine the 50% effective concentration (EC50) and 50% cytotoxic concentration (CC50) of these agents using an 8-point dose-response curve in the human THP1-Dual cells. Cytotoxicity was measured in the plate using Cell Titer Glo (Promega). Identified candidate compounds were further screened (orthogonal screen) for cross species activity in the validated mouse J774-Dual assay using an 8-point dose-response format to determine EC50 and CC50 values as well as ISRE:NFκB ratios. A general process flow for the experimental design laid out above is depicted at FIG. 12.

[1] = THP1-Dual cytotoxicity (Cell Titer Glo, ATP); type: cell-based, human; settings: human, THP1-Dual cells, read-out: Thp1 cytotox CC50
Text: FIG. 9C is a CC50 (50% cytotoxic concentration) graph of AV-C dependent IRF activation in THP1-Dual cells, determined with an 8-point dose response experiment. Cell viability was monitored based on quantitation of ATP present, as an indicator of metabolically active cells, where luminescence is proportional to the amount of ATP present, using Cell-Titer Glo (Promega).
(§1) The OTRADI Small Molecule Library of approximately 246,000 diverse compounds (see below for description) was screened using the THP1-Dual based HTS platform described above. All transfer steps in the screen are fully automated, thus reducing variability. Primary screening included a single data point or dose for each molecule. After data normalization was applied for each assay run, “hit” selection was performed on the plates that pass the quality control (QC) criterion. Hits were defined as samples having values above the activity cutoff determined based on noise level of the assay to reduce false positive rates. In the pilot study discussed above this activity value was >3σ above the ISRE mean with the added criteria of NFκB activation being lower than […] from the mean to identify IRF selective compounds. The ratio of ISRE:NFκB activity was also calculated as a selectivity index for prioritizing hit selection. Primary hits underwent secondary screening to determine the 50% effective concentration (EC50) and 50% cytotoxic concentration (CC50) of these agents using an 8-point dose-response curve in the human THP1-Dual cells. Cytotoxicity was measured in the plate using Cell Titer Glo (Promega). Identified candidate compounds were further screened (orthogonal screen) for cross species activity in the validated mouse J774-Dual assay using an 8-point dose-response format to determine EC50 and CC50 values as well as ISRE:NFκB ratios. A general process flow for the experimental design laid out above is depicted at FIG. 12.

[2] = test system: IRF-Lucia luciferase reporter (ISRE) in J774-Dual cells; assay: J774-Dual IRF-Lucia luciferase reporter assay (ISRE activation); type: cell-based, mouse; settings: for J774 IRF % activation at peak: Mouse Reporter Cell Line J774; for EC50: Mus musculus, J774, Mouse Reporter Cell Line J774, read-out: J774 IRF EC50
Method: First, optimal assay conditions and assay quality in 384-well format were determined. As mentioned, the mouse macrophage J774 cell line (J774-Dual, InvivoGen) stably transfected with the same inducible reporters described above (e.g., IRF-Lucia luciferase and NF-κB-SEAP) was used. The responsiveness of the J774-Dual cell line was investigated in an array of assay conditions to obtain sensitive and reproducible results for the activation of the IRF and NF-κB reporters. An optimal plating density and conditions for these cells was established for these cells in a 384-well format. Assay work-flow is similar to that discussed above for the THP1-Dual assay without a need for cell differentiation. Thus, cells are seeded directly in growth medium and incubated at 37° C. in a 5% C02 incubator for 24 hours prior to the programmed treatments being added as described herein.
The primary high throughput screen used the HTS platform of human THP1 monocyte cells containing the IRF-Lucia luciferase and NFκB-SEAP (secreted embryonic alkaline phosphatase) dual reporter (THP1-Dual, Invivogen), enabling the simultaneous study of the IRF and NFκB signaling pathways respectively. As discussed, the Lucia luciferase reporter gene is under the control of an ISG54 (interferon-stimulated gene) minimal promoter in conjunction with five interferon-stimulated response elements (ISRE). The SEAP gene is driven by an IFNβ minimal promoter fused to five copies of the NFκB consensus transcriptional response element and three copies of the c-Rel binding site. Both IRF-Lucia luciferase and NFκB-SEAP reporter proteins are secreted and readily measurable in the cell culture supernatant when using QUANTI-Luc™ and QUANTI-Blue™ detection reagents, respectively. Identified “hits” were confirmed in a secondary screen with an 8-point dose response curve. Hits were further screened for activity in the mouse using the mouse J774 macrophage-like cell line containing the identical reporter constructs (J774-Dual, Invivogen).
as §1

[3] = test system: IRF-Lucia luciferase reporter (ISRE) in THP1-Dual cells; assay: THP1-Dual IRF-Lucia luciferase reporter assay (ISRE activation); type: cell-based, human; settings: THP1-Dual; for EC50: Homo sapiens, read-out: THP1 IRF EC50
Method: THP1 Dual (InvivoGen) cell suspensions were cultured in RPMI 1640 (Hyclone, Logan, Utah) supplemented with 10% fetal bovine serum (Hyclone), 100 U/mL Normocin (Invivogen), and 50 U/mL PenStrep (Gibco, Dublin, Ireland) between a density of 7·10^5-2·10^6 cells/mL. Every other passage, media was supplemented with 5 U/mL Blasticidin and 100 U/mL Zeocin to maintain the expression constructs. White, flat-bottom 384-well plates (Greiner, Kremsmunster, Austria, 781080) were seeded with 2.5·10^4 cells/well in a total of 50 μL media containing 5 ng/mL phorbolmyristic acid (PMA) using a Matrix WellMate (Thermo Scientific) dispenser. After 48 hours of incubation at 37° C., media was removed using a BioTek ELx405 CW plate washer set to aspirate and wash each well three times with 65 μL 1×PBS. Plates were reloaded with 50 μL media without PMA and treatments added. Lipopolysaccharide in dimethylsulfoxide (DMSO) was transferred to control wells using a HP D300 microdispenser to a final concentration of 313 ng/mL. Compounds from chemical library plates were copied using a Sciclone (Caliper LifeSciences) mounted with a 384-pin transfer tool to obtain a final concentration of 10 μM. After incubation with treatments for 24 hours, 10 μL of supernatant media from each well was transferred into a white, flat-bottom 384-well plate for luminescence readout and a black-walled, clear flat-bottom 384-well plate for absorbance readout.
Specifically, to enable screening of novel chemical entities (NCEs) in a larger screening effort, a robust high-throughput cell-based assay system for primary hit identification of ISRE activators based on the above-mentioned target validation was desired. Human ISRE activity was verified using a THP-1 monocyte line containing the NF-κB-SEAP and IRF-Lucia luciferase dual reporter (THP1-Dual; Invivogen) that features two reporter genes, SEAP (secreted embryonic alkaline phosphatase) and Lucia luciferase, thereby enabling the simultaneous study of the NF-κB and IRF signalling pathways. The Lucia luciferase reporter is under the control of an ISG54 (interferon-stimulated gene) minimal promoter in conjunction with five IFN-stimulated response elements. The SEAP gene is driven by an IFN-β minimal promoter fused to five copies of the NF-κB consensus transcriptional response element and three copies of the c-Rel binding site. Both reporter proteins are readily measurable in the cell culture supernatant when using QUANTI-LUC™ and QUANTI-Blue SEAP detection reagents.
The responsiveness of the human THP-1 Dual cell line was evaluated in an array of assay conditions to obtain sensitive and reproducible results for the activation of IRF and NF-κB reporters. […] All transfer steps are fully automated using high throughput robotic equipment. Briefly, cells are seeded in differentiation medium using a Matrix WellMate fitted with the WellMate Stacker (Thermo Scientific) and incubated at 37° C. with 5% CO2 for 48 h. Following differentiation, cells are washed using a BioTek ELx405 Select CW plate washer and growth medium added with the Matrix WellMate. Programmed control treatments are added to wells using a D300 digital dispenser fitted with T8+ dispense heads (Hewlett Packard) designed to dispense nanoliter quantities of material. Compounds from library plates are added using a pin tool fitted to a Sciclone ALH 3000 Workstation (Caliper Life Sciences) programmed with Maestro v4.4. After treatment, plates are returned to incubators for 24 hours. To measure reporter expression, supernatant is collected using the Sciclone and dispensed into 2 plates: 1) a white 384-well assay plate for Lucia luminescence measurements and 2) a clear-bottom black 384-well assay plate for SEAP absorbance measurements.

[4] = Human Reporter Cell Line, 8-point dose response

| SMILES | EC50 [2] [µM] | EC50 ([3]; Human Reporter Cell Line THP1) [µM] | EC50 [3, 4] [µM] | CC50 (J774-Dual cytotoxicity; Mouse Reporter Cell Line J774) [µM] | CC50 ([1]; Human Reporter Cell Line THP1) [µM] | J774 IRF % activation at peak [2] [%] | CC50 (J774-Dual cytotoxicity; Mouse Reporter Cell Line) [µM] | CC50 ([1]; Human Reporter Cell Line) [µM] | activation at 25 µM ([3]; 24 h, Human Reporter Cell Line THP1, @25 uM, read-out: THP1 IRF % activation at peak) [%] |
| --- | --- | --- | --- | --- | --- | --- | --- | --- | --- |
| Cc1ccc(-c2nc3cc(OCCCN4CCCC4)ccc3o2)cc1N [ND-82] | ~9.36 |  |  | > 25 | > 25 | 22.57 |  |  |  |
| Cc1ccc(-c2nc3cc(OCCCCl)ccc3o2)cc1[N+](=O)[O-] [ND-81] | ~9.79 |  |  | > 25 | > 25 | 23.19 |  |  |  |
| NC(=O)c1cc(NC(=O)c2ccccc2)ccc1N1CCOCC1 [NB-4] |  | ~72.1 |  | > 25 | > 25 |  |  |  | 5.61 |
| COc1ccc2oc(-c3ccc(C)c([N+](=O)[O-])c3)nc2c1 [ND-84] |  | ~19.6 |  | > 25 | > 25 |  |  |  |  |
| O=C(Nc1ccc(N2CCN(C(=O)c3ccccc3)CC2)cc1)c1ccc(OCc2ccccc2)cc1 [NA-51] |  |  | ~2.63 |  |  |  | > 25 | 11.3 |  |
| COc1c(Cl)cc(C(=O)Nc2cc(-c3nc4cc(C)c(C)cc4o3)ccc2C)cc1Cl [ND-69] |  | ~5.39 |  | > 25 | > 25 |  |  |  |  |
| COc1ccc(C(=O)Nc2cc(-c3nc4cc(C)cc(C)c4o3)ccc2C)cc1[N+](=O)[O-] [ND-8] |  | 2.95 |  | > 25 | > 25 |  |  |  |  |
| COC(=O)c1ccc(N2CCN(C(=O)c3cccs3)CC2)cc1 [NA-47] |  |  | 0.358 |  |  |  | > 25 | > 25 |  |
| Cc1cc2nc(-c3ccc(C)c(NC(=O)c4ccc(N5CCCC5)c([N+](=O)[O-])c4)c3)oc2cc1C [ND-34] |  | ~11.4 |  | > 25 | > 25 |  |  |  |  |
| COc1ccc(C(=O)Nc2ccc(N3CCN(C(=O)c4cccs4)CC3)cc2)cc1[N+](=O)[O-] [NA-46] |  |  | 0.109 |  |  |  | > 25 | > 25 |  |
| COc1ccc2oc(-c3ccc(C)c(NC(=O)c4ccc(N5CCOCC5)c([N+](=O)[O-])c4)c3)nc2c1 [ND-35] |  | 2.13 |  | > 25 | 35.7 |  |  |  |  |
| COc1cc2nc(-c3ccccc3)nc(N3CCN(CCN4CCCC4)CC3)c2cc1OC [ND-98] |  | 3.03 |  | 19.3 | 18.1 |  |  |  |  |

Further lines, with some results ahead:

| EC50 [2] [µM] | EC50 ([3]; Human Reporter Cell Line THP1) [µM] | EC50 [3, 4] [µM] | SMILES | CC50 (J774-Dual cytotoxicity; Mouse Reporter Cell Line J774) [µM] | CC50 ([1]; Human Reporter Cell Line THP1) [µM] | J774 IRF % activation at peak [2] [%] | CC50 (J774-Dual cytotoxicity; Mouse Reporter Cell Line) [µM] | CC50 ([1]; Human Reporter Cell Line) [µM] | activation at 25 µM ([3]; 24 h, Human Reporter Cell Line THP1, @25 uM, read-out: THP1 IRF % activation at peak) [%] |
| --- | --- | --- | --- | --- | --- | --- | --- | --- | --- |
| 4.5 | 2.63 |  | COc1ccc(C(=O)Nc2cc(-c3nc4cc(Cl)ccc4o3)ccc2C)cc1[N+](=O)[O-] [ND-40] | > 25 | 16.1 | 119.6 |  |  |  |
| ~7.27 | 11.9 |  | Cc1cc(C)c2c(N)c(C(=O)Nc3ccc4ccccc4c3)sc2n1 [ND-6] | > 25 | 49.8 | 18.79 |  |  |  |
|  | 7.27 |  | Cc1ccc(-c2nc3ccccc3s2)cc1NC(=O)c1ccc(Cl)c([N+](=O)[O-])c1 [ND-64] | > 25 | > 25 |  |  |  |  |
|  |  | 2.4 | O=C(Nc1ccc(N2CCN(C(=O)c3cccs3)CC2)cc1)c1ccc2cc(Br)ccc2c1 [NA-17] |  |  |  | > 25 | 14.6 |  |
|  | 2.04 |  | COc1ccc(C(=O)Nc2cccc(-c3nc4ncccc4o3)c2)cc1[N+](=O)[O-] [ND-41] | > 25 | > 25 |  |  |  |  |
|  | 3.13 |  | Cc1ccc(C(=O)Nc2ccc3oc(-c4cccnc4)nc3c2)c(Cl)c1 [ND-4] | > 25 | 49.3 |  |  |  |  |
|  | ~8.05 |  | Cc1cc2nc(-c3ccc(C)c(NC(=O)c4cccc([N+](=O)[O-])c4)c3)oc2cc1C [ND-36] | > 25 | > 25 |  |  |  |  |
|  | 2.8 |  | O=C(Nc1nc2ccc3scnc3c2s1)c1ccc2ccccc2c1 [ND-58] | > 25 | > 25 |  |  |  |  |
|  | 2.49 |  | COc1ccc2nc(NC(=O)c3ccc(OC)c([N+](=O)[O-])c3)sc2c1 [ND-39] | > 25 | > 25 |  |  |  |  |
|  |  | 2.55 | COC(=O)COc1cccc(NC(=O)c2ccc(NC(=O)c3ccco3)cc2)c1 [NC-1] |  |  |  | > 25 | 27.4 |  |
